Laboratory results from patent US7666890B2, “Synthesis and herbicidal activity of 1- (2-substituted benzo[d]thiazol-5-yl)-1H-1,2,4-triazol-5(4H)-one derivatives” (Huazhong Normal University, priority 2007, dated 2010).

Key:
Assay in all cases: Test of herbicidal activities (greenhouse pot method)
Assay type in all cases: in vivo
Settings in all cases: single dose 300 g ai./h, treated before/after germination, 15 days later, greenhouse pot
Amaranthus retroflexus = tested on: Amaranthus retroflexus
Outline: (§1)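 Greenhouse pot test on weeds grown in mixed garden/mountain/humus soil at 15-30° C; pre- and post-emergence spray at a single dose of 300 g ai./h via automatic spraying tower (0.2 MPa). Inhibition scored after 15 days into five levels A (90-100%) to E (<50%); triplicate with blank control.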

Brassica juncea = tested on: Brassica juncea
Outline: as §1

Chenopodium album = tested on: Chenopodium album
Outline: as §1

Digiatria sanguinalis = tested on: Digiatria sanguinalis
Outline: as §1

Echinochloa crusgalli = tested on: Echinochloa crusgalli
Outline: as §1

Setaria viridis = tested on: Setaria viridis
Outline: as §1

Row | Compound | Herbicidal activity Amaranthus retroflexus (inhibition level) (Amaranthus retroflexus) | Herbicidal activity Brassica juncea (inhibition level) (Brassica juncea) | Herbicidal activity Chenopodium album (inhibition level) (Chenopodium album) | Herbicidal activity Digiatria sanguinalis (inhibition level) (Digiatria sanguinalis) | Herbicidal activity Echinochloa crusgalli (inhibition level) (Echinochloa crusgalli) | Herbicidal activity Setaria viridis (inhibition level) (Setaria viridis)
1 | Cc1nn(-c2cc3nc(S(=O)(=O)Cc4ccc(F)cc4F)sc3cc2Cl)c(=O)n1C(F)F [Compound 45] | A (90 ≦ A ≦ 100%) | B (80 ≦ B < 90%) | B (80 ≦ B < 90%) | A (90 ≦ A ≦ 100%) | E (E < 50%) | C (60 ≦ C < 80%)
2 | C=CCSc1nc2cc(-n3nc(C)n(C(F)F)c3=O)c(Br)cc2s1 [Compound 88] | A (90 ≦ A ≦ 100%) | A (90 ≦ A ≦ 100%) | B (80 ≦ B < 90%) | A (90 ≦ A ≦ 100%) | B (80 ≦ B < 90%) | D (50 ≦ D < 60%)
3 | C=CCSc1nc2cc(-n3nc(C)n(C(F)F)c3=O)c(Cl)cc2s1 [Compound 99] | B (80 ≦ B < 90%) | B (80 ≦ B < 90%) | C (60 ≦ C < 80%) | B (80 ≦ B < 90%) | A (90 ≦ A ≦ 100%) | B (80 ≦ B < 90%)
4 | Cc1nn(-c2cc3nc(SCc4cccc(Cl)c4)sc3cc2Cl)c(=O)n1C(F)F [Compound 4] | B (80 ≦ B < 90%) | E (E < 50%) | C (60 ≦ C < 80%) | E (E < 50%) | C (60 ≦ C < 80%) | C (60 ≦ C < 80%)
5 | Cc1ccccc1CS(=O)(=O)c1nc2cc(-n3nc(C)n(C(F)F)c3=O)c(F)cc2s1 [Compound 43] | A (90 ≦ A ≦ 100%) | C (60 ≦ C < 80%) | C (60 ≦ C < 80%) | D (50 ≦ D < 60%) | D (50 ≦ D < 60%) | C (60 ≦ C < 80%)
6 | Cc1ccc([N+](=O)[O-])c(C[S+]([O-])c2nc3cc(-n4nc(C)n(C(F)F)c4=O)c(F)cc3s2)c1 (stereo not drawn) [Compound 106] | D (50 ≦ D < 60%) | B (80 ≦ B < 90%) | A (90 ≦ A ≦ 100%) | D (50 ≦ D < 60%) | D (50 ≦ D < 60%) | B (80 ≦ B < 90%)
7 | Cc1nn(-c2cc3nc(S(=O)(=O)Cc4ccc(F)cc4F)sc3cc2F)c(=O)n1C(F)F [Compound 49] | A (90 ≦ A ≦ 100%) | A (90 ≦ A ≦ 100%) | B (80 ≦ B < 90%) | C (60 ≦ C < 80%) | A (90 ≦ A ≦ 100%) | D (50 ≦ D < 60%)
8 | Cc1nn(-c2cc3nc(SCc4coc5ccccc5c4=O)sc3cc2Br)c(=O)n1C(F)F [Compound 28] | C (60 ≦ C < 80%) | A (90 ≦ A ≦ 100%) | C (60 ≦ C < 80%) | B (80 ≦ B < 90%) | B (80 ≦ B < 90%) | D (50 ≦ D < 60%)
9 | C=CCS(=O)(=O)c1nc2cc(-n3nc(C)n(C(F)F)c3=O)c(Cl)cc2s1 [Compound 71] | C (60 ≦ C < 80%) | B (80 ≦ B < 90%) | B (80 ≦ B < 90%) | C (60 ≦ C < 80%) | C (60 ≦ C < 80%) | B (80 ≦ B < 90%)
10 | CSc1nc2cc(-n3nc(C)n(C)c3=O)c(F)cc2s1 [Compound 31] | A (90 ≦ A ≦ 100%) | B (80 ≦ B < 90%) | C (60 ≦ C < 80%) | A (90 ≦ A ≦ 100%) | B (80 ≦ B < 90%) | B (80 ≦ B < 90%)
11 | CCOC(=O)CSc1nc2cc(-n3nc(C(F)(F)F)n(C(F)F)c3=O)c(F)cc2s1 [Compound 122] | E (E < 50%) | E (E < 50%) | E (E < 50%) | E (E < 50%) | C (60 ≦ C < 80%) | E (E < 50%)
12 | Cc1nn(-c2cc3nc(S(=O)(=O)Cc4ccccc4F)sc3cc2F)c(=O)n1C(F)F [Compound 52] | C (60 ≦ C < 80%) | B (80 ≦ B < 90%) | B (80 ≦ B < 90%) | A (90 ≦ A ≦ 100%) | E (E < 50%) | B (80 ≦ B < 90%)
13 | CCCSc1nc2cc(-n3nc(C)n(C(F)F)c3=O)c(Br)cc2s1 [Compound 81] | A (90 ≦ A ≦ 100%) | A (90 ≦ A ≦ 100%) | B (80 ≦ B < 90%) | D (50 ≦ D < 60%) | B (80 ≦ B < 90%) | B (80 ≦ B < 90%)
14 | Cc1nn(-c2cc3nc(S(=O)(=O)Cc4cccc([N+](=O)[O-])c4)sc3cc2F)c(=O)n1C(F)F [Compound 50] | B (80 ≦ B < 90%) | C (60 ≦ C < 80%) | D (50 ≦ D < 60%) | A (90 ≦ A ≦ 100%) | B (80 ≦ B < 90%) | B (80 ≦ B < 90%)
15 | CCCCCCS(=O)(=O)c1nc2cc(-n3nc(C)n(C(F)F)c3=O)c(Cl)cc2s1 [Compound 57] | A (90 ≦ A ≦ 100%) | B (80 ≦ B < 90%) | C (60 ≦ C < 80%) | A (90 ≦ A ≦ 100%) | D (50 ≦ D < 60%) | D (50 ≦ D < 60%)
16 | Cc1ccccc1CSc1nc2cc(-n3nc(C)n(C(F)F)c3=O)c(F)cc2s1 [Compound 14] | B (80 ≦ B < 90%) | A (90 ≦ A ≦ 100%) | C (60 ≦ C < 80%) | C (60 ≦ C < 80%) | B (80 ≦ B < 90%) | C (60 ≦ C < 80%)
17 | COCCSc1nc2cc(-n3nc(C)n(C(F)F)c3=O)c(Cl)cc2s1 [Compound 76] | A (90 ≦ A ≦ 100%) | C (60 ≦ C < 80%) | C (60 ≦ C < 80%) | A (90 ≦ A ≦ 100%) | A (90 ≦ A ≦ 100%) | B (80 ≦ B < 90%)
18 | CC[S+]([O-])c1nc2cc(-n3nc(C)n(C(F)F)c3=O)c(Br)cc2s1 (stereo not drawn) [Compound 109] | B (80 ≦ B < 90%) | A (90 ≦ A ≦ 100%) | A (90 ≦ A ≦ 100%) | B (80 ≦ B < 90%) | A (90 ≦ A ≦ 100%) | B (80 ≦ B < 90%)
